Molecules are shown by their SMILES.

One assay has as its target T1, GST-RORγ (Homo sapiens, UniProt P51449).
T1 construct: 1 μg of GST-RORγ-LBD, 5 nM of [3H]T1317 as radioligand
T1 sequence (P51449 269-508 limits assumed): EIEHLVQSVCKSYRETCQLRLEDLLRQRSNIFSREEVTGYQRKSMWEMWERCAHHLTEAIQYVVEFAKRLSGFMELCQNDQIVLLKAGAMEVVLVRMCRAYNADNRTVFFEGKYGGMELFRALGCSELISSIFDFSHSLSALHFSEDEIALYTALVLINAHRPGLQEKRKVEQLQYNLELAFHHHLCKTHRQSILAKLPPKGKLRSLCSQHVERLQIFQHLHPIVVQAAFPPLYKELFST
The assay is described as follows: RORγ scintillation proximity (SPA) radioligand binding assay, displacement of [3H]-T0901317. Particulars: 10 μM compound; read-out: RORγ SPA % bound = % radiolabel bound. For orientation: Scintillation proximity formats need no separation of bound from free tracer.

A further assay has as its target T2, LXR (Homo sapiens, UniProt Q13133).
T2 sequence (Q13133 209-447 limits assumed): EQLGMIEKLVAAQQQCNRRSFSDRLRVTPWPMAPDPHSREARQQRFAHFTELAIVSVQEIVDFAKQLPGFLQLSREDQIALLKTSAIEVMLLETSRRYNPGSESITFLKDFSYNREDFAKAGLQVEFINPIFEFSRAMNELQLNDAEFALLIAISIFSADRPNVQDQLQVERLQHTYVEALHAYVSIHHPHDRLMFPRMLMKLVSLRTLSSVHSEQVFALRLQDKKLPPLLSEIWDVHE
Nature of the assay: Gal4-LXRα / UAS luciferase cotransfection assay. Format: cell-based. Conditions: 10 μM.

A further assay addresses T3, RORγ (Homo sapiens, UniProt P51449).
T3 construct: expressed in transfected cells; host or cells: HEK293T
T3 sequence (P51449 269-508 limits assumed): T1 sequence (P51449 269-508 limits assumed)
The assay is described as follows: Gal4-RORγ LBD / UAS luciferase cotransfection assay. Particulars: 10 μM. Format: cell-based.

For a further assay, the system named is VP16. Nature of the assay: Gal4 DBD-VP16 / UAS luciferase control assay. Format: cell-based. Conditions: 10 μM.
In another assay the target is T4, RORα (Homo sapiens, UniProt P35398).
T4 construct: expressed in transfected cells; host or cells: HEK293T
T4 sequence (P35398 272-510 limits assumed): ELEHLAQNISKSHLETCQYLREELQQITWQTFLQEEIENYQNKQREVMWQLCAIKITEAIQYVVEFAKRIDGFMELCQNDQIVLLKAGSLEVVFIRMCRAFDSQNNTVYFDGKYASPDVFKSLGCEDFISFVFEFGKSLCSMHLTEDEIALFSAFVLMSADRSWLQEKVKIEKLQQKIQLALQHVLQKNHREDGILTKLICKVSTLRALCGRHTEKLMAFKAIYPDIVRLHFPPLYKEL
Nature of the assay: Gal4-RORα LBD / UAS luciferase cotransfection assay. Format: cell-based. Conditions: 10 μM.

Description for LXR: (§1) The cells were treated with either DMSO or various compounds as indicated four hours after replating. Following additional 20 hour incubation, luciferase levels were assayed by one-step addition of 20 μL BriteLite (Perkin Elmer) and read using an Envision multilabel plate reader (Perkin Elmer).
Cotransfection assays were performed as previously described in HEK293 cells (Gal4 cotransfection assay or IL-17 luciferase reporter)[8]. HEK293 and the mouse lymphoma EL4 (ATCC) cells were maintained in DMEM supplemented with 10% FBS plus antibiotics (penicillin and streptomycin; Invitrogen).
Description for VP16: as §1

For `OC(c1ccc(-c2ccc(CN3CCC(Nc4ccncc4)CC3)cc2)cc1)(C(F)(F)F)C(F)(F)F` [Compound 104, 1,1,1,3,3,3-Hexafluoro-2-(4′-((4-(pyridin-4-ylamino)piperidin-1-yl)methyl)-[1,1′-biphenyl]-4-yl)propan-2-ol], on GST-RORγ, the remaining activity at 10 µM was 20%. Besides, on LXR, the “LXR activation, fold change over DMSO” value turned out to be 1.1 fold change over DMSO. Moreover, the “RORγ repression, fold change over DMSO” value on RORγ came out at 0.1 fold change over DMSO. Further, the “VP16 repression, fold change over DMSO” value in the assay with VP16 amounted to 0.4 fold change over DMSO. Also, the “RORα repression, fold change over DMSO” value on RORα is 0.9 fold change over DMSO.

For the compound `OC(c1ccc(-c2ccc(CN3CCN(c4ccccc4)CC3)cc2)cc1)(C(F)(F)F)C(F)(F)F` [Compound 14, 1,1,1,3,3,3-Hexafluoro-2-(4′-((4-phenylpiperazin-1-yl)methyl)-[1,1′-biphenyl]-4-yl)propan-2-ol], the “LXR activation, fold change over DMSO” value at LXR is 5 fold change over DMSO. Moreover, the “RORγ repression, fold change over DMSO” value at RORγ came to 0.05 fold change over DMSO. Further, in the assay on VP16, the “VP16 repression, fold change over DMSO” value is on record as 0.4 fold change over DMSO. Further, the “RORα repression, fold change over DMSO” value on RORα came to 0.4 fold change over DMSO.

On to `OC(c1ccc(-c2ccc(CN3CCN(Cc4cccs4)CC3)cc2)cc1)(C(F)(F)F)C(F)(F)F` [Compound 19, 1,1,1,3,3,3-Hexafluoro-2-(4′-((4-(thiophen-2-ylmethyl)piperazin-1-yl)methyl)-[1,1′-biphenyl]-4-yl)propan-2-ol], for which the “LXR activation, fold change over DMSO” value on LXR was found to be 1.5 fold change over DMSO. Also, on RORγ, the “RORγ repression, fold change over DMSO” value came out at 0.5 fold change over DMSO. Besides, the “VP16 repression, fold change over DMSO” value in the assay with VP16 worked out at 0.4 fold change over DMSO. The “RORα repression, fold change over DMSO” value at RORα is given as 0.75 fold change over DMSO.

In the case of `O=C(Nc1ccccc1)N1CCN(Cc2ccc(-c3ccc(C(O)(C(F)(F)F)C(F)(F)F)cc3)cc2)CC1` [Compound 23, 4-((4′-(1,1,1,3,3,3-Hexafluoro-2-hydroxypropan-2-yl)-[1,1′-biphenyl]-4-yl)methyl)-N-phenylpiperazine-1-carboxamide], the “LXR activation, fold change over DMSO” value at LXR is given as 2 fold change over DMSO. The “RORγ repression, fold change over DMSO” value at RORγ stood at 0.5 fold change over DMSO. Further, in the assay with VP16, the “VP16 repression, fold change over DMSO” value was 0.55 fold change over DMSO. The “RORα repression, fold change over DMSO” value on RORα was found to be 0.9 fold change over DMSO.

`O=C(Cc1ccccc1)N1CCN(Cc2ccc(-c3ccc(C(O)(C(F)(F)F)C(F)(F)F)cc3)cc2)CC1` [Compound 27, 1-(4-((4′-(1,1,1,3,3,3-Hexafluoro-2-hydroxypropan-2-yl)-[1,1′-biphenyl]-4-yl)methyl)piperazin-1-yl)-2-phenylethanone]: the “LXR activation, fold change over DMSO” value at LXR is given as 0.8 fold change over DMSO. Also, the “RORγ repression, fold change over DMSO” value on RORγ was 0.25 fold change over DMSO. Moreover, the “VP16 repression, fold change over DMSO” value in the assay on VP16 was 0.3 fold change over DMSO. The “RORα repression, fold change over DMSO” value on RORα turned out to be 0.5 fold change over DMSO.

For `O=S(=O)(c1ccccc1)N1CCN(Cc2ccc(-c3ccc(C(O)(C(F)(F)F)C(F)(F)F)cc3)cc2)CC1` [Compound 29, 1,1,1,3,3,3-Hexafluoro-2-(4′-((4-(phenylsulfonyl)piperazin-1-yl)methyl)-[1,1′-biphenyl]-4-yl)propan-2-ol], the “LXR activation, fold change over DMSO” value at LXR came out at 1.8 fold change over DMSO. Moreover, at RORγ, the “RORγ repression, fold change over DMSO” value is 0.8 fold change over DMSO. Further, the “VP16 repression, fold change over DMSO” value in the assay on VP16 amounted to 0.8 fold change over DMSO. For the same compound, on RORα, the “RORα repression, fold change over DMSO” value came out at 1 fold change over DMSO.

With `OC(c1ccc(-c2ccc(CN3CCN(CCc4ccncc4)CC3)cc2)cc1)(C(F)(F)F)C(F)(F)F` [Compound 41, 1,1,1,3,3,3-Hexafluoro-2-(4′-((4-(2-(pyridin-4-yl)ethyl)piperazin-1-yl)methyl)-[1,1′-biphenyl]-4-yl)propan-2-ol], the “LXR activation, fold change over DMSO” value at LXR is 1 fold change over DMSO. In addition, at RORγ, the “RORγ repression, fold change over DMSO” value was found to be 0.3 fold change over DMSO. Also, in the assay on VP16, the “VP16 repression, fold change over DMSO” value came to 0.3 fold change over DMSO. Besides, the “RORα repression, fold change over DMSO” value at RORα is given as 0.5 fold change over DMSO.

As for `Cc1cc(CN2CCN(Cc3ccc(-c4ccc(C(O)(C(F)(F)F)C(F)(F)F)cc4)cc3)CC2)ccn1` [Compound 43, 1,1,1,3,3,3-Hexafluoro-2-(4′-((4-((2-methylpyridin-4-yl)methyl)piperazin-1-yl)methyl)-[1,1′-biphenyl]-4-yl)propan-2-ol], the “LXR activation, fold change over DMSO” value at LXR amounted to 1 fold change over DMSO. Moreover, at RORγ, the “RORγ repression, fold change over DMSO” value amounted to 0.1 fold change over DMSO. In addition, the “VP16 repression, fold change over DMSO” value with VP16 was 0.6 fold change over DMSO. The “RORα repression, fold change over DMSO” value at RORα was 0.6 fold change over DMSO.

`OC(c1ccc(-c2ccc(CN3CCN(Cc4ccncc4)CC3)cc2F)cc1)(C(F)(F)F)C(F)(F)F` [Compound 95, 1,1,1,3,3,3-Hexafluoro-2-(2′-fluoro-4′-((4-(pyridin-4-ylmethyl)piperazin-1-yl)methyl)-[1,1′-biphenyl]-4-yl)propan-2-ol]: on LXR, the “LXR activation, fold change over DMSO” value is listed as 5 fold change over DMSO. Also, on RORγ, the “RORγ repression, fold change over DMSO” value was 0.05 fold change over DMSO. In the assay with VP16, the “VP16 repression, fold change over DMSO” value is reported as 0.7 fold change over DMSO. Further, the “RORα repression, fold change over DMSO” value at RORα is 0.5 fold change over DMSO.

In the case of `CCCNC(=O)N1CCN(Cc2ccc(-c3ccc(C(O)(C(F)(F)F)C(F)(F)F)cc3)cc2)CC1` [Compound 22, 4-((4′-(1,1,1,3,3,3-Hexafluoro-2-hydroxypropan-2-yl)-[1,1′-biphenyl]-4-yl)methyl)-N-propylpiperazine-1-carboxamide], the “LXR activation, fold change over DMSO” value at LXR is recorded as 1.8 fold change over DMSO. The “RORγ repression, fold change over DMSO” value on RORγ turned out to be 0.4 fold change over DMSO. Also, the “VP16 repression, fold change over DMSO” value in the assay with VP16 was 0.4 fold change over DMSO. On RORα, the “RORα repression, fold change over DMSO” value is listed as 0.5 fold change over DMSO.

Take `CCC(=O)N1CCN(Cc2ccc(-c3ccc(C(O)(C(F)(F)F)C(F)(F)F)cc3)cc2)CC1` [Compound 25, 1-(4-((4′-(1,1,1,3,3,3-Hexafluoro-2-hydroxypropan-2-yl)-[1,1′-biphenyl]-4-yl)methyl)piperazin-1-yl)propan-1-one]: on LXR, the “LXR activation, fold change over DMSO” value is reported as 1 fold change over DMSO. Further, the “RORγ repression, fold change over DMSO” value at RORγ is recorded as 0.45 fold change over DMSO. Moreover, the “VP16 repression, fold change over DMSO” value in the assay on VP16 is listed as 0.5 fold change over DMSO. For the same compound, on RORα, the “RORα repression, fold change over DMSO” value was found to be 0.7 fold change over DMSO.

For the compound `OC(c1ccc(-c2ccc(CN3CCN(CC4COc5ccccc5O4)CC3)cc2)cc1)(C(F)(F)F)C(F)(F)F` (stereo not shown) [Compound 21, 2-(4′-((4-((2,3-Dihydrobenzo[b][1,4]dioxin-2-yl)methyl)piperazin-1-yl)methyl)-[1,1′-biphenyl]-4-yl)-1,1,1,3,3,3-hexafluoropropan-2-ol], the “LXR activation, fold change over DMSO” value on LXR came to 0.7 fold change over DMSO. Moreover, the “RORγ repression, fold change over DMSO” value at RORγ worked out at 0.35 fold change over DMSO. In addition, the “VP16 repression, fold change over DMSO” value with VP16 is recorded as 0.35 fold change over DMSO. Besides, the “RORα repression, fold change over DMSO” value at RORα amounted to 0.45 fold change over DMSO.

Turning to `OC(c1ccc(-c2ccc(CN3CCN(c4ccncc4)CC3)cc2)cc1)(C(F)(F)F)C(F)(F)F` [Compound 44, 1,1,1,3,3,3-Hexafluoro-2-(4′-((4-(pyridin-4-yl)piperazin-1-yl)methyl)-[1,1′-biphenyl]-4-yl)propan-2-ol], at LXR, the “LXR activation, fold change over DMSO” value was determined as 1 fold change over DMSO. Also, on RORγ, the “RORγ repression, fold change over DMSO” value came to 0.4 fold change over DMSO. Moreover, the “VP16 repression, fold change over DMSO” value in the assay on VP16 was determined as 0.3 fold change over DMSO. Besides, the “RORα repression, fold change over DMSO” value at RORα worked out at 0.5 fold change over DMSO.

For `O=C(NCc1ccccc1)N1CCN(Cc2ccc(-c3ccc(C(O)(C(F)(F)F)C(F)(F)F)cc3)cc2)CC1` [Compound 24, N-Benzyl-4-((4′-(1,1,1,3,3,3-hexafluoro-2-hydroxypropan-2-yl)-[1,1′-biphenyl]-4-yl)methyl)piperazine-1-carboxamide], the “LXR activation, fold change over DMSO” value on LXR came out at 1.3 fold change over DMSO. Also, the “RORγ repression, fold change over DMSO” value on RORγ was 0.25 fold change over DMSO. For the same compound, the “VP16 repression, fold change over DMSO” value in the assay with VP16 was found to be 0.25 fold change over DMSO. For the same compound, the “RORα repression, fold change over DMSO” value at RORα stood at 0.5 fold change over DMSO.

Consider `OC(c1ccc(-c2ccc(CN3CCN(Cc4nc5ccccc5s4)CC3)cc2)cc1)(C(F)(F)F)C(F)(F)F` [Compound 42, 2-(4′-((4-(Benzo[d]thiazol-2-ylmethyl)piperazin-1-yl)methyl)-[1,1′-biphenyl]-4-yl)-1,1,1,3,3,3-hexafluoropropan-2-ol], for which the “LXR activation, fold change over DMSO” value on LXR was 1 fold change over DMSO. On RORγ, the “RORγ repression, fold change over DMSO” value is given as 0.2 fold change over DMSO. Moreover, the “VP16 repression, fold change over DMSO” value with VP16 is recorded as 0.1 fold change over DMSO. In addition, the “RORα repression, fold change over DMSO” value on RORα amounted to 0.4 fold change over DMSO.
